Several values for one entry are separate records, joined by “and”; a condition that tells them apart may be missing. Identical values can stand only once.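 Cells were grown in 96-well plates and exposed to each compound for 48 hours at five concentrations; endpoints were interpolated linearly between bracketing concentrations, or set to the highest concentration if not reached. The concentration for 50% growth inhibition is given as GI50. TGI denotes the concentration required for complete inhibition of growth.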
Legend:
Experiment in all cases: DTP human tumour cell line panel, 48 h
OVCAR-3 ovarian = system: OVCAR-3 ovarian
DU-145 prostate = system: DU-145 prostate
SF-268 CNS = system: SF-268 CNS
IGROV1 ovarian = system: IGROV1 ovarian
COLO 205 colon = system: COLO 205 colon
RPMI-8226 leukemia = system: RPMI-8226 leukemia
U251 CNS = system: U251 CNS
CAKI-1 renal = system: CAKI-1 renal
OVCAR-5 ovarian = system: OVCAR-5 ovarian
TK-10 renal = system: TK-10 renal
PC-3 prostate = system: PC-3 prostate
LOX IMVI melanoma = system: LOX IMVI melanoma
OVCAR-4 ovarian = system: OVCAR-4 ovarian
HOP-92 NSCLC = system: HOP-92 NSCLC
MALME-3M melanoma = system: MALME-3M melanoma
SK-MEL-2 melanoma = system: SK-MEL-2 melanoma
BT-549 breast = system: BT-549 breast
NCI-H522 lung = system: NCI-H522 lung
SNB-75 CNS = system: SNB-75 CNS
A549 NSCLC = system: A549 NSCLC
HCT-15 colon = system: HCT-15 colon
SR leukemia = system: SR leukemia
UACC-257 melanoma = system: UACC-257 melanoma
ACHN renal = system: ACHN renal
MOLT-4 leukemia = system: MOLT-4 leukemia
NCI-H226 lung = system: NCI-H226 lung
A498 renal = system: A498 renal
CCRF-CEM leukemia = system: CCRF-CEM leukemia
HCT-116 colon = system: HCT-116 colon
NCI/ADR-RES ovarian = system: NCI/ADR-RES ovarian
SF-539 CNS = system: SF-539 CNS
UACC-62 melanoma = system: UACC-62 melanoma
HT29 colon = system: HT29 colon
HS 578T breast = system: HS 578T breast
EKVX NSCLC = system: EKVX NSCLC
SK-MEL-5 melanoma = system: SK-MEL-5 melanoma
MDA-MB-435 = system: MDA-MB-435
RXF 393 renal = system: RXF 393 renal
SF-295 CNS = system: SF-295 CNS
MDA-MB-231 breast = system: MDA-MB-231 breast
SNB-19 CNS = system: SNB-19 CNS
NCI-H23 lung = system: NCI-H23 lung
K-562 leukemia = system: K-562 leukemia
NCI-H460 lung = system: NCI-H460 lung
SN12C renal = system: SN12C renal
SW-620 colon = system: SW-620 colon
HCC-2998 colon = system: HCC-2998 colon
UO-31 renal = system: UO-31 renal
786-0 renal = system: 786-0 renal
M14 melanoma = system: M14 melanoma
SK-MEL-28 melanoma = system: SK-MEL-28 melanoma
MCF7 breast = system: MCF7 breast
HOP-62 NSCLC = system: HOP-62 NSCLC
SK-OV-3 ovarian = system: SK-OV-3 ovarian
KM12 colon = system: KM12 colon
OVCAR-8 ovarian = system: OVCAR-8 ovarian
HL-60(TB) leukemia = system: HL-60(TB) leukemia
T-47D breast = system: T-47D breast

CO[C@@H](C)Cn1c(=O)n(C)c2cnc3ccc(-c4cncc(C(C)(C)O)c4)cc3c21
GI50 (OVCAR-3 ovarian): 119 nM and 65.6 nM | TGI (OVCAR-3 ovarian): 6490 nM and > 3390 nM | GI50 (DU-145 prostate): 93.5 nM and 59.1 nM | TGI (DU-145 prostate): > 100000 nM | GI50 (SF-268 CNS): 140 nM and 79.6 nM | TGI (SF-268 CNS): 16800 nM and > 5750 nM | GI50 (IGROV1 ovarian): 40.7 nM and 30.3 nM | TGI (IGROV1 ovarian): 249 nM and 212 nM | GI50 (COLO 205 colon): 145 nM and 92.4 nM | TGI (COLO 205 colon): 1510 nM and 1490 nM | GI50 (RPMI-8226 leukemia): 186 nM and 59 nM | TGI (RPMI-8226 leukemia): 2060 nM and 968 nM | GI50 (U251 CNS): 127 nM and 63.3 nM | TGI (U251 CNS): 12600 nM and > 10000 nM | GI50 (CAKI-1 renal): 50.5 nM | TGI (CAKI-1 renal): 512 nM | GI50 (OVCAR-5 ovarian): 191 nM and 95.6 nM | TGI (OVCAR-5 ovarian): > 100000 nM | GI50 (TK-10 renal): 120 nM and 69.4 nM | TGI (TK-10 renal): 719 nM and 536 nM | GI50 (PC-3 prostate): 161 nM and 44.5 nM | GI50 (LOX IMVI melanoma): 52.6 nM and 37.6 nM | TGI (LOX IMVI melanoma): 1270 nM and 1320 nM | GI50 (OVCAR-4 ovarian): 105 nM and 51.4 nM | TGI (OVCAR-4 ovarian): 676 nM and 667 nM | GI50 (HOP-92 NSCLC): 109 nM and 27.9 nM | TGI (HOP-92 NSCLC): 644 nM and 188 nM | GI50 (MALME-3M melanoma): 58.4 nM and 63.8 nM | TGI (MALME-3M melanoma): 317 nM and 480 nM | GI50 (SK-MEL-2 melanoma): 105 nM | TGI (SK-MEL-2 melanoma): 494 nM | GI50 (BT-549 breast): 54 nM and 41 nM | TGI (BT-549 breast): 707 nM and 444 nM | GI50 (NCI-H522 lung): 51.3 nM | TGI (NCI-H522 lung): 653 nM | GI50 (SNB-75 CNS): 23.5 nM and 21.7 nM | TGI (SNB-75 CNS): 264 nM and 163 nM | GI50 (A549 NSCLC): 76.8 nM and 53.5 nM | TGI (A549 NSCLC): 1570 nM and > 3220 nM | GI50 (HCT-15 colon): 141 nM and 77.5 nM | TGI (HCT-15 colon): 23200 nM and > 10000 nM | GI50 (SR leukemia): 153 nM and 113 nM | TGI (SR leukemia): 14900 nM and > 10000 nM | GI50 (UACC-257 melanoma): 195 nM and 93.2 nM | TGI (UACC-257 melanoma): 741 nM and 538 nM | GI50 (ACHN renal): 135 nM and 97.5 nM | TGI (ACHN renal): > 100000 nM | GI50 (MOLT-4 leukemia): 196 nM and 163 nM | TGI (MOLT-4 leukemia): 1770 nM and 4100 nM | GI50 (NCI-H226 lung): 40.6 nM | TGI (NCI-H226 lung): 477 nM | GI50 (A498 renal): 27.3 nM and 10.9 nM | TGI (A498 renal): 124 nM and 59.1 nM | GI50 (CCRF-CEM leukemia): 203 nM and 87.4 nM | TGI (CCRF-CEM leukemia): > 100000 nM | GI50 (HCT-116 colon): 303 nM and 187 nM | TGI (HCT-116 colon): 10800 nM and > 7650 nM | GI50 (NCI/ADR-RES ovarian): 1060 nM and 384 nM | TGI (NCI/ADR-RES ovarian): 14000 nM and > 10000 nM | GI50 (SF-539 CNS): 105 nM and 52.5 nM | TGI (SF-539 CNS): 696 nM and 414 nM | GI50 (UACC-62 melanoma): 97.6 nM and 39.4 nM | TGI (UACC-62 melanoma): 413 nM and 255 nM | GI50 (HT29 colon): 93.3 nM and 75.6 nM | TGI (HT29 colon): 12700 nM and > 6870 nM | GI50 (HS 578T breast): 28.6 nM | TGI (HS 578T breast): 191 nM | GI50 (EKVX NSCLC): 69.1 nM and 66.9 nM | TGI (EKVX NSCLC): 847 nM and 1400 nM | GI50 (SK-MEL-5 melanoma): 103 nM and 99.2 nM | TGI (SK-MEL-5 melanoma): 408 nM and 418 nM | GI50 (MDA-MB-435): 146 nM and 71.8 nM | TGI (MDA-MB-435): 3440 nM and 1160 nM | GI50 (RXF 393 renal): 41.6 nM and 32.5 nM | TGI (RXF 393 renal): 341 nM and 216 nM | GI50 (SF-295 CNS): 49.5 nM and 37.3 nM | TGI (SF-295 CNS): 422 nM and 328 nM | GI50 (MDA-MB-231 breast): 166 nM and 44 nM | TGI (MDA-MB-231 breast): 3870 nM and 2120 nM | GI50 (SNB-19 CNS): 143 nM and 77.3 nM | TGI (SNB-19 CNS): 7790 nM and > 10000 nM | GI50 (NCI-H23 lung): 203 nM and 133 nM | TGI (NCI-H23 lung): 29800 nM and > 6670 nM | GI50 (K-562 leukemia): 302 nM and 132 nM | TGI (K-562 leukemia): > 100000 nM | GI50 (NCI-H460 lung): 143 nM and 53.9 nM | TGI (NCI-H460 lung): > 100000 nM | GI50 (SN12C renal): 112 nM and 54.4 nM | TGI (SN12C renal): 70000 nM and > 10000 nM | GI50 (SW-620 colon): 248 nM and 110 nM | TGI (SW-620 colon): 16400 nM and > 10000 nM | GI50 (HCC-2998 colon): 257 nM and 88.5 nM | TGI (HCC-2998 colon): 13800 nM and > 10000 nM | GI50 (UO-31 renal): 34.8 nM and 23.7 nM | TGI (UO-31 renal): 346 nM and 336 nM | GI50 (786-0 renal): 59 nM and 41.8 nM | TGI (786-0 renal): 2200 nM and 1990 nM | GI50 (M14 melanoma): 149 nM and 111 nM | TGI (M14 melanoma): 5100 nM and > 4680 nM | GI50 (SK-MEL-28 melanoma): 143 nM and 77.3 nM | TGI (SK-MEL-28 melanoma): 2500 nM and 573 nM | GI50 (MCF7 breast): 140 nM and 59.3 nM | TGI (MCF7 breast): 47900 nM and > 10000 nM | GI50 (HOP-62 NSCLC): 126 nM and 81 nM | TGI (HOP-62 NSCLC): 1390 nM and 1410 nM | GI50 (SK-OV-3 ovarian): 48.8 nM and 42.4 nM | TGI (SK-OV-3 ovarian): 358 nM and 285 nM | GI50 (KM12 colon): 326 nM and 122 nM | TGI (KM12 colon): 12700 nM and > 10000 nM | GI50 (OVCAR-8 ovarian): 154 nM and 69.7 nM | TGI (OVCAR-8 ovarian): 2900 nM and > 4100 nM | GI50 (HL-60(TB) leukemia): 717 nM and 361 nM | TGI (HL-60(TB) leukemia): 9780 nM and > 6740 nM | GI50 (T-47D breast): 40.9 nM and 28.4 nM | TGI (T-47D breast): 378 nM and 208 nM

Reference: PubChem BioAssay (NCI)
